Reference: patent US20230217926A1, “SELECTIVE HERBICIDES BASED ON SUBSTITUTED ISOXAZOLIN CARBOXAMIDES AND ISOXADIFEN-ETHYL” (BAYER AKTIENGESELLSCHAFT, priority 2020, published 2023)

Assays:
Type in all cases: in vivo, maize
ZEAMA Abraxas = test: Tank-mix post-emergence crop damage, greenhouse, visual assessment; parameters: key to Reduction [Difference]: % injury reduction: damage without minus with safener (0–100% scale); conditions: for HER effect + SAF / Reduction [%] / Reduction [Difference]: Final; for HER effect: no safener, Final assessment
Method: (§1) Seeds of crops (spring wheat, TRZAS; spring barley, HORVS; maize, ZEAMA) were placed in sandy loam soil in peat pots, covered with soil and cultivated in a greenhouse under good growth conditions. Two to three weeks after sowing, the test plants were treated at the 1 to 3-leaf stage. The herbicide/safener active compound combinations according to the invention, formulated as wettable powders or emulsion concentrates, and, in parallel tests, the correspondingly formulated individual active compounds were sprayed onto the green parts of the plants in various dosages using an amount of water of 300 l/ha (converted).
(§2) The pots were returned under good growing conditions in a glasshouse and a visual assessment of herbicidal effects was made at intervals from 1 to 3 weeks after herbicide application (DAT=days after treatment). Assessment was on a percentage basis in comparison with untreated control plants (0%=no injury, 100%=complete kill).
(§3) Reduction[Difference]=herbicide damage without safener−herbicide damage with safener Reduction[%]=(Reduction[Difference]*100)/herbicide damage without safener
b) Plant Species, Variety: ZEAMA Abraxas, Safener (SAF): Isoxadifen-Ethyl

ZEAMA Sileno [1] = test: as above; parameters: key to Reduction [Difference]: % points: herbicide damage without safener − damage with safener; conditions: for HER effect + SAF / Reduction [%] / Reduction [Difference]: Final; for HER effect: no safener, Final assessment
Method: as §1, §2, §3
a) Plant Species, Variety: ZEAMA Sileno, Safener (SAF): Isoxadifen-Ethyl

ZEAMA Sileno [2] = test: Safener seed treatment, pre-emergence herbicide, crop damage; parameters: key to Reduction [Difference]: % crop damage without safener minus % damage with safener; conditions: for Reduction [%] / Reduction [Difference]: isoxadifen-ethyl 0.25 g a.i./kg seed; for HER effect + SAF: isoxadifen-ethyl seed treatment 0.25 g a.i./kg seed; for HER effect: no safener
Method: For the safener seed treatment, sufficient seeds of the respective crops (spring wheat, TRZAS; spring barley, HORVS; maize, ZEAMA) were weighed into screw top glass bottles approximately twice the volume of the seeds.
The specified safeners, formulated as wettable powder (WP) were weighed out so that the specified rates (g a.i./kg seed) would be obtained, dissolved in water (1 ml water per 10 g of seeds), and added to the seeds to produce a slurry.
The bottles were capped and then placed in an overhead shaker (set at medium speed for ca. 60 minutes) so that the seeds were evenly coated with the slurry. The bottles were uncapped and the seeds were either placed on paper and dried for an interval of 3-4 hours prior to sowing, or directly sown. Seeds were placed in sandy loam soil in pots of a diameter of 7-8 cm, and covered with soil.
Pre-emergence application of the specified herbicides was done subsequently, on two sets of plants: a) seed treatment with safener, as described above
The herbicides were formulated as WP and was sprayed onto the soil surface as an aqueous suspension at an equivalent water application rate of 300 l/ha.
After application, the test plants were kept in the greenhouse under good growth conditions. At intervals up to 4 weeks after application (=28 days after treatment; DAT), % crop damage observed on the treated plants was scored visually in comparison to control plants that had not received any safener or herbicide treatment.
Values in the table below are mean values of at least 2 replicates.
Reduction[Difference]=herbicide damage without safener−herbicide damage with safener Reduction[%]=(Reduction[Difference]*100)/herbicide damage without safener […]
c) Plant Species, Variety: ZEAMA Sileno, Safener (SAF): Isoxadifen-Ethyl

[3] = HER 8 g a.i./ha + isoxadifen-ethyl 50 g a.i./ha
[4] = HER 8 g a.i./ha, isoxadifen-ethyl 50 g a.i./ha
[5] = HER 32 g a.i./ha + isoxadifen-ethyl 100 g a.i./ha
[6] = HER 32 g a.i./ha, isoxadifen-ethyl 100 g a.i./ha
[7] = HER 2 g a.i./ha, isoxadifen-ethyl 100 g a.i./ha
[8] = HER 80 g a.i./ha pre-emergence, 14 DAT
[9] = HER 40 g a.i./ha pre-emergence, 14 DAT
[10] = HER 40 g a.i./ha pre-emergence, 26 DAT
[11] = HER 2 g a.i./ha, isoxadifen-ethyl 50 g a.i./ha
[12] = HER 80 g a.i./ha pre-emergence, 26 DAT

Row | Structure (SMILES) | HER effect + SAF (ZEAMA Abraxas; [3]) [%] | Reduction [%] (ZEAMA Abraxas; [4]) | Reduction [Difference] (ZEAMA Abraxas; [4]) | HER effect (ZEAMA Abraxas; HER 8 g a.i./ha) [%] | HER effect + SAF (ZEAMA Abraxas; [5]) [%] | Reduction [%] (ZEAMA Abraxas; [6]) | Reduction [Difference] (ZEAMA Abraxas; [6]) | HER effect (ZEAMA Abraxas; HER 32 g a.i./ha) [%] | HER effect + SAF (ZEAMA Sileno [1]; [3]) [%] | Reduction [%] (ZEAMA Sileno [1]; [4]) | Reduction [Difference] (ZEAMA Sileno [1]; [4]) | HER effect (ZEAMA Sileno [1]; HER 8 g a.i./ha) [%] | HER effect + SAF (ZEAMA Sileno [1]; [5]) [%] | Reduction [%] (ZEAMA Sileno [1]; [6]) | Reduction [Difference] (ZEAMA Sileno [1]; [6]) | HER effect (ZEAMA Sileno [1]; HER 32 g a.i./ha) [%] | further results
1 | C=CC1(C(=O)NC2CC=C(C(=O)OC)C2)CC(c2cc(F)cc(F)c2)=NO1 (mixture of isomers) [Example 1.60] | 20 | 64 | 35 | 55 | 57 | 39 | 37 | 94 |  |  |  |  |  |  |  |  | 
2 | COC(=O)C1C=CC(NC(=O)C2(C(F)(F)F)CC(c3cc(C)cc(F)c3)=NO2)C1 (mixture of isomers) [Example 1.22] |  |  |  |  | 0 | 100 | 20 | 20 |  |  |  |  |  |  |  |  | 
3 | COCCOC(=O)C1C=CC(NC(=O)C2(CCl)CC(c3cc(F)cc(F)c3)=NO2)C1 (centres unmarked) [Example 1.1] | 20 | 78 | 73 | 93 | 45 | 53 | 50 | 95 |  |  |  |  |  |  |  |  | 
4 | CC1(C(=O)NC2COC(C(=O)OCc3cccc(F)c3)C2)CC(c2cc(F)cc(F)c2)=NO1 (mixture of isomers) [Example 1.76] | 33 | 63 | 57 | 90 |  |  |  |  |  |  |  |  |  |  |  |  | 
5 | C=CC1(C(=O)NC2C=C(C(=O)OC)OC2)CC(c2cc(C)cc(C)c2)=NO1 (centres unmarked) [Example 1.90] |  |  |  |  |  |  |  |  |  |  |  |  |  |  |  |  | HER effect + SAF (ZEAMA Abraxas; HER 2 g a.i./ha + isoxadifen-ethyl 100 g a.i./ha): 5%; Reduction [%] (ZEAMA Abraxas; [7]): 80%; Reduction [Difference] (ZEAMA Abraxas; [7]): 20; HER effect (ZEAMA Abraxas; HER 2 g a.i./ha): 25%
6 | COCCOC(=O)C1C=CC(NC(=O)C2(C(F)(F)F)CC(c3cc(F)cc(C#N)c3)=NO2)C1 (centres unmarked) [Example 1.2] |  |  |  |  |  |  |  |  | 65 | 28 | 25 | 90 | 75 | 22 | 21 | 96 | Reduction [%] (ZEAMA Sileno [2]; [8]): 78%; Reduction [Difference] (ZEAMA Sileno [2]; [8]): 35; HER effect + SAF (ZEAMA Sileno [2]; [8]): 10%; HER effect (ZEAMA Sileno [2]; [8]): 45%
7 | C=CC1(C(=O)NC2COC(C(=O)OC)C2)CC(c2cc(C)cc(F)c2)=NO1 (mixture of isomers) [Example 1.71] | 17 | 71 | 41 | 58 | 35 | 62 | 56 | 91 |  |  |  |  |  |  |  |  | 
8 | CC1(C(=O)NC2C=CC(C(=O)OCCCl)C2)CC(c2cc(F)cc(F)c2)=NO1 (mixture of isomers) [Example 1.47] |  |  |  |  | 38 | 39 | 24 | 62 |  |  |  |  |  |  |  |  | 
9 | CCOC(=O)C1C=CC(NC(=O)C2(C(F)(F)F)CC(c3ccccc3)=NO2)C1 (centres unmarked) [Example 1.9] |  |  |  |  |  |  |  |  | 22 | 72 | 56 | 78 | 22 | 74 | 63 | 85 | Reduction [%] (ZEAMA Sileno [2]; [8]): 83%; Reduction [Difference] (ZEAMA Sileno [2]; [8]): 25; HER effect + SAF (ZEAMA Sileno [2]; [8]): 5%; HER effect (ZEAMA Sileno [2]; [8]): 30%
10 | CN(C)C(=O)SCCOC(=O)C1C=CC(NC(=O)C2(C)CC(c3cc(F)cc(F)c3)=NO2)C1 (centres unmarked) [Example 1.29] |  |  |  |  |  |  |  |  | 25 | 58 | 35 | 60 | 25 | 67 | 50 | 75 | Reduction [%] (ZEAMA Sileno [2]; [8]): 33%; Reduction [Difference] (ZEAMA Sileno [2]; [8]): 20; HER effect + SAF (ZEAMA Sileno [2]; [8]): 40%; HER effect (ZEAMA Sileno [2]; [8]): 60%
11 | C=CC1(C(=O)NC2COC(C(=O)OC)C2)CC(c2cc(F)cc(F)c2)=NO1 (centres unmarked) [Example 1.69] |  |  |  |  |  |  |  |  | 33 | 64 | 59 | 92 | 30 | 68 | 63 | 93 | Reduction [%] (ZEAMA Sileno [2]; [9]): 42%; Reduction [Difference] (ZEAMA Sileno [2]; [9]): 40; Reduction [%] (ZEAMA Sileno [2]; [10]): 28%; Reduction [Difference] (ZEAMA Sileno [2]; [10]): 25; HER effect + SAF (ZEAMA Sileno [2]; [9]): 55%; HER effect + SAF (ZEAMA Sileno [2]; [10]): 65%; HER effect (ZEAMA Sileno [2]; [9]): 95%; HER effect (ZEAMA Sileno [2]; [10]): 90%
12 | C=CC1(C(=O)NC2C=C(C(=O)OCCOC)OC2)CC(c2cc(C)cc(F)c2)=NO1 (centres unmarked) [Example 1.89] | 3 | 90 | 27 | 30 | 17 | 62 | 28 | 45 |  |  |  |  |  |  |  |  | 
13 | COC(=O)C1OCCC1NC(=O)C1(C)CC(c2cc(F)cc(F)c2)=NO1 (centres unmarked) [Example 1.92] |  |  |  |  |  |  |  |  | 42 | 56 | 53 | 95 | 38 | 61 | 59 | 97 | Reduction [%] (ZEAMA Sileno [2]; [9]): 93%; Reduction [Difference] (ZEAMA Sileno [2]; [9]): 70; Reduction [%] (ZEAMA Sileno [2]; [10]): 86%; Reduction [Difference] (ZEAMA Sileno [2]; [10]): 60; HER effect + SAF (ZEAMA Sileno [2]; [9]): 5%; HER effect + SAF (ZEAMA Sileno [2]; [10]): 10%; HER effect (ZEAMA Sileno [2]; [9]): 75%; HER effect (ZEAMA Sileno [2]; [10]): 70%
14 | COC(=O)C1=CC(NC(=O)C2(C)CC(c3cc(F)cc(F)c3)=NO2)CC1 (centres unmarked) [Example 1.63] |  |  |  |  |  |  |  |  | 40 | 53 | 45 | 85 | 43 | 51 | 45 | 88 | Reduction [%] (ZEAMA Sileno [2]; [9]): 50%; Reduction [Difference] (ZEAMA Sileno [2]; [9]): 30; Reduction [%] (ZEAMA Sileno [2]; [10]): 100%; Reduction [Difference] (ZEAMA Sileno [2]; [10]): 25; HER effect + SAF (ZEAMA Sileno [2]; [9]): 30%; HER effect + SAF (ZEAMA Sileno [2]; [10]): 0%; HER effect (ZEAMA Sileno [2]; [9]): 60%; HER effect (ZEAMA Sileno [2]; [10]): 25%
15 | C=CC1(C(=O)NC2COC(C(=O)OC)C2)CC(c2cc(F)cc(F)c2)=NO1 (centres unmarked) [Example 1.70] |  |  |  |  |  |  |  |  |  |  |  |  |  |  |  |  | HER effect + SAF (ZEAMA Sileno [1]; HER 2 g a.i./ha + isoxadifen-ethyl 50 g a.i./ha): 35%; Reduction [%] (ZEAMA Sileno [1]; [11]): 60%; Reduction [Difference] (ZEAMA Sileno [1]; [11]): 53; HER effect (ZEAMA Sileno [1]; HER 2 g a.i./ha, 0%=no injury, 100%=complete kill): 88%; Reduction [%] (ZEAMA Sileno [2]; [9]): 44%; Reduction [Difference] (ZEAMA Sileno [2]; [9]): 35; Reduction [%] (ZEAMA Sileno [2]; [10]): 53%; Reduction [Difference] (ZEAMA Sileno [2]; [10]): 45; HER effect + SAF (ZEAMA Sileno [2]; [9]): 45%; HER effect + SAF (ZEAMA Sileno [2]; [10]): 40%; HER effect (ZEAMA Sileno [2]; [9]): 80%; HER effect (ZEAMA Sileno [2]; [10]): 85%; Reduction [%] (ZEAMA Sileno [2]; [8]): 26%; Reduction [Difference] (ZEAMA Sileno [2]; [8]): 25; Reduction [%] (ZEAMA Sileno [2]; [12]): 21%; Reduction [Difference] (ZEAMA Sileno [2]; [12]): 20; HER effect + SAF (ZEAMA Sileno [2]; [8]): 70%; HER effect + SAF (ZEAMA Sileno [2]; [12]): 75%; HER effect (ZEAMA Sileno [2]; [8]): 95%; HER effect (ZEAMA Sileno [2]; [12]): 95%
